Results on six compounds are retold here after patent US20090170880A1, “Methods and Means for the Treatment of Cancer” (priority 2007, published 2009).

One data set concerns the target T1, murine Bcrp1 (Mus musculus, UniProt Q7TMS5).
T1 construct: expressed in transfected cells; host or cells: MDCKII (canine kidney) cells transduced with murine Bcrp1
T1 sequence (Q7TMS5 1-657): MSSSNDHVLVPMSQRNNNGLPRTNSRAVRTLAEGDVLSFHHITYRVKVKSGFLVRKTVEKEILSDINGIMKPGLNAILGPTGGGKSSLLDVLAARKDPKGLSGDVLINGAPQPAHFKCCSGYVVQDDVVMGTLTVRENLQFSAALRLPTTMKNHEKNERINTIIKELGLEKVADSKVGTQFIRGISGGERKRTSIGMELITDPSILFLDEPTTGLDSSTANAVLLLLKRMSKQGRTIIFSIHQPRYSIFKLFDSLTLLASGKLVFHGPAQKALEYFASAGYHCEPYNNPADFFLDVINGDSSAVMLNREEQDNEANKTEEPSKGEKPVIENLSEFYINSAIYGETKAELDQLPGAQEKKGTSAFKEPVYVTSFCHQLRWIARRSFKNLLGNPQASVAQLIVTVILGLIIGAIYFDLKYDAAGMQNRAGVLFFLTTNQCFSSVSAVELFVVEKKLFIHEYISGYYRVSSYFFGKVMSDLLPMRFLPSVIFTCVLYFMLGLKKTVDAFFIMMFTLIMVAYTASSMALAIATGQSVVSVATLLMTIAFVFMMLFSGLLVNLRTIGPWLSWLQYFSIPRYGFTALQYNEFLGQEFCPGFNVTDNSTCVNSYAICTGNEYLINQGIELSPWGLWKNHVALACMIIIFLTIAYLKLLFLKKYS
Description: Transwell transport of temozolomide, MDCKII-Bcrp1 cells, without or with inhibitors. The note with it: MDCKII-Bcrp1 cells. Format: in vitro ADME. The protocol:
The parental LLC pig-kidney (PK1) cell line and sublines transduced with murine Mdr1a or human MDR1 (12) and the parental Madine Darby Canine Kidney (MDCK) and murine Bcrp1 or human BCRP transduced sublines (13) were seeded on Transwell microporous polycarbonate membrane filters (3.0 μm pore size, 24 mm diameter; Costar Corning, N.Y., USA) at a density of 1×10^6 cells per well in 2 ml of MEM medium (Invitrogen Corporation, Carlsbad, Calif.) containing 10% v/v fetal calf serum. Cells were incubated at 37° C. in 5% CO2 for three days with one medium replacement after the first day. Two hours before the start of the experiment the medium in both compartments was replaced with 2 ml of OptiMEM medium (InVitrogen Corp.). At the start of the experiment the medium in the apical or basolateral compartment was replaced with 2 ml of freshly prepared OptiMEM medium containing 40 μg/ml of temozolomide. […] Zosuquidar (LY335979, 5 μM) was always added to the medium when doing experiments with MDCK cell lines to inhibit endogenous canine P-gp. Samples of 50 μl were collected every 30 min, for up to 2 h after start of the experiment. Because temozolomide is instable in medium at 37° C., we replaced one ml of the donor compartment by a freshly prepared aliquot every 30 min. [^3H]-inulin (approximately 7 kBq per well) was added to the same compartment as temozolomide to check the integrity of the cell layer. Wells showing a leakage of more than 1.5% per hour were excluded.
First, we took samples every 30 min for up to 2 h instead of every hour for up to 4 h. Secondly, to maintain adequate temozolomide levels at the donor side throughout the experiment we replaced 1 ml of the 2 ml of medium at the donor side of the transwell at each sampling time by 1 ml of a freshly prepared temozolomide solution in medium.

The subject of data set [1] is intracranial Mel57-luc tumor xenografts. As to the kind of experiment: Efficacy against intracranial Mel57-luc tumor xenografts. The following applies: wild-type nude mice, elacridar oral 100 mg/kg/day×5 20-30 min before temozolomide oral 100 mg/kg/day×5. Format: in vivo, nude mice. The protocol:
Intracranial Mel57-luc (luciferase transfected subline) tumor xenografts in wild-type nude mice (WT) and mdr1ab knockout nude mice (MDR) were established according to the protocol below (see Kemper et al, Eur J Cancer 42:3294-3303, 2006).
The Mel57 cell line (University Medical Centre, Nijmegen, The Netherlands) is a human melanoma cell line and was cultured in MEM (Life Technologies Inc., Breda, The Netherlands) supplemented with 10% foetal calf serum, non-essential amino acids, streptomycin, penicillin and sodium pyruvate (all Life Technologies), and incubated at 37° C. and 5% CO2 in humidified air. The cell line was further transfected by standard protocols with lipofectamine using a pBS vector containing a β-actin driven luciferase gene coupled via an internal ribosome […] to GFP. After expansion, GFP bright cells were sorted to single cells by FACS, expanded and sublines tested for luciferase expression by an in vitro bioluminescence assay (Promega, Benelux BV, Leiden, The Netherlands). Three to five sublines showing the highest luminescence activity were tested in vivo for tumour take and intracranial growth behaviour. To retrieve tumour cells for injection, the cell culture was trypsinised (trypsin 0.05%; EDTA 0.02%, Life Technologies), washed two times with Hanks Balanced Saline Solution (HBSS, Life Technologies Inc.), counted and resuspended in an appropriate volume of HBSS. The single cell suspension was kept on ice until injection. […]
Mel57-luc cells (100,000 cells/2 μl) were injected stereotactically in the brain as described in detail in Kemper et al^14. […] The amount of bioluminescence in each animal was calculated relative to the first measurement when therapy was initiated (arbitrarily set at 100%) and was log converted prior to data analysis. Tumor volume was measured by bioluminescence activity (see Kemper et al, Eur J Cancer 42:3294-3303, 2006).

For data set [2], the system named is P-gp. Description: Transwell control experiments with radioactively labeled P-gp and BCRP substrates. Format: in vitro ADME. The note with it: inhibitor 20 μM, radiolabeled substrates, results not shown. The protocol: Similar experiments were conducted in the parental canine MDCK cells and its transduced murine Bcrp1 or human BCRP sublines. […] Together with these experiments we ran control experiments using well-established P-gp and BCRP substrates that were available to us as radioactively labeled compounds (^14C-trabectedin and ^14C-Indisulan, or ^14C-topotecan). […] Moreover, the integrity of all monolayers was checked using ^3H-inuline as marker compound. Wells showing more than 1.5% translocation of inuline per 30 min were considered to be leaky and excluded from the analysis.

In another data set the test system is P-gp and BCRP. As to the kind of experiment: Temozolomide brain and plasma levels at 2 h with or without oral inhibitor. The note with it: wild-type mice, inhibitor 100 mg/kg oral, 2 h after temozolomide. In kind it is in vivo. As for the experimental part: The mice were anesthetized with metoxyflurane and blood samples were obtained by cardiac puncture and collected on ice in tubes containing potassium EDTA as anticoagulant. […] Immediately after cardiac puncture the mice were killed by cervical dislocation and the brains were dissected and placed on ice. Within 60 min they were weighed and homogenized in 3 ml of ice-cold 1% of BSA in 0.05 M phosphate buffer adjusted to pH 2 and stored at −20° C. until further analysis. […] The brain-to-plasma ratio was calculated for each individual animal. The two-sided unpaired Student's t-test was used for statistical analysis of AUC values. Bonferroni's test for multiple comparisons was calculated using SPSS (v12.0.1; […]

For data set [3] the following is noted: in vivo; cited from earlier work.
In data set [4] the target is T2, P-gp (Mus musculus, UniProt P21447).
T2 construct: host or cells: mice (Mdr1ab knockout versus wild type)
The note with it: Mdr1ab knockout mice; cited from earlier work.

T2 sequence (P21447 whole entry): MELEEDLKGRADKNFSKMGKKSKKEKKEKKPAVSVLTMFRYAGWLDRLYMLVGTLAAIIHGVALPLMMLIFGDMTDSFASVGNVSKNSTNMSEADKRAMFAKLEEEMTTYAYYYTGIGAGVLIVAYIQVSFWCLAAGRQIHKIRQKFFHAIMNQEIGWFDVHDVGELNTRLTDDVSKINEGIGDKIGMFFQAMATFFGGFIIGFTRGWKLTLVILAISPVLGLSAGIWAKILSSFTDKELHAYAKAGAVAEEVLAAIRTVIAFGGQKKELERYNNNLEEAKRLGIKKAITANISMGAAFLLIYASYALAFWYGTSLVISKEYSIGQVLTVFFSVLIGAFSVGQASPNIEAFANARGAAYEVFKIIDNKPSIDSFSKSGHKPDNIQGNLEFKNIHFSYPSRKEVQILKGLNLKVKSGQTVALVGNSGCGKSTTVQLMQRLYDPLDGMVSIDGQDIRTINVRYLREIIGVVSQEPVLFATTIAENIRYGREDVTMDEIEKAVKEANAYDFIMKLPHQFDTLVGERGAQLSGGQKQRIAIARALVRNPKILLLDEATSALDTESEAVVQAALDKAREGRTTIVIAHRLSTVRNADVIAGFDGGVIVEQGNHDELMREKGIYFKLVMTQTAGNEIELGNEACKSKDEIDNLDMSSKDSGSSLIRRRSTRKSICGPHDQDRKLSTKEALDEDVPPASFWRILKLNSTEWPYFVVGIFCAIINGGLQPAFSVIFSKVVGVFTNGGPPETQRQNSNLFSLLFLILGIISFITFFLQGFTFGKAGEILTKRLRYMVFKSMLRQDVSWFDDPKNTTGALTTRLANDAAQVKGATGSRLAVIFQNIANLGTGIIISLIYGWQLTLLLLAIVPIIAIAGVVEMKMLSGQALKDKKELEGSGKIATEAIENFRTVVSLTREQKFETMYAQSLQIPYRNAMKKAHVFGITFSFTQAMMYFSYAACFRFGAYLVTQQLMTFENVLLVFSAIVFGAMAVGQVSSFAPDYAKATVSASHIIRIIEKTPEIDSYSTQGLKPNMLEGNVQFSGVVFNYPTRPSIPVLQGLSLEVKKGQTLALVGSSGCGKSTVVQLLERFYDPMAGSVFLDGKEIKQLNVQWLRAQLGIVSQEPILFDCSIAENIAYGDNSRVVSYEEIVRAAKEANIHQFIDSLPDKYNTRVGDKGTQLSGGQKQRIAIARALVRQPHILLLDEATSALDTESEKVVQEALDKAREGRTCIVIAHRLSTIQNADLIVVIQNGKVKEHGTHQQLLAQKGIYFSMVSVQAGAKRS

Turning to `COc1cc2c(cc1OC)CN(CCc1ccc(NC(=O)c3cccc4c(=O)c5cccc(OC)c5[nH]c34)cc1)CC2` [elacridar], on murine Bcrp1 (inhibitor 5 μM), the “effect on Bcrp1 mediated transport of temozolomide” value (“effect on Bcrp1 mediated transport” below) is “(almost) completely abrogated”. Further, in data set [1], the “efficacy of temozolomide with elacridar versus temozolomide alone” value was “more effective than temozolomide alone”.

For the compound `C#Cc1cccc(Nc2ncnc3cc(OCCOC)c(OCCOC)cc23)c1` [erlotinib], the “effect on Bcrp1 mediated transport” value on murine Bcrp1 (inhibitor 10 μM) is on record as “(almost) completely abrogated”.

With `COc1cc2ncnc(Nc3ccc(F)c(Cl)c3)c2cc1OCCCN1CCOCC1` [gefitinib], the “effect on Bcrp1 mediated transport” value at murine Bcrp1 (inhibitor 10 μM) is “(almost) completely abrogated”. The “inhibition of P-gp mediated transport” value in the data set with P-gp [2] is “sufficient”. Besides, the “effect on temozolomide plasma level” value with P-gp and BCRP was “significantly increased”.

Turning to `Cc1ccc(NC(=O)c2ccc(CN3CCN(C)CC3)cc2)cc1Nc1nccc(-c2cccnc2)n1` [imatinib], the oral bioavailability in data set [3] is on record as over 90%.

`CO[C@@H]1[C@@H](OC(N)=O)[C@@H](O)[C@H](Oc2ccc3c(O)c(NC(=O)c4ccc(O)c(CC=C(C)C)c4)c(=O)oc3c2C)OC1(C)C` [novobiocin]: on murine Bcrp1 (inhibitor 50 μM), the “effect on Bcrp1 mediated transport” value is recorded as “not sufficient”.

As to `CC(=O)O[C@H]1C(=O)[C@@]2(C)[C@H]([C@H](OC(=O)c3ccccc3)[C@]3(O)C[C@H](OC(=O)[C@H](O)[C@@H](NC(=O)c4ccccc4)c4ccccc4)C(C)=C1C3(C)C)[C@]1(OC(C)=O)CO[C@@H]1C[C@@H]2O` [paclitaxel], the “brain-to-plasma ratio relative to wild-type controls” value on P-gp [4] is “more than 5 fold”.
